{"source": "paper PMC12866797", "about": "“Targeting DESI2 as a Novel Therapeutic Strategy for JAK2‐Mutant Leukemias” (Advanced Science, 2025)", "key": {"DESI2 [1]": {"molecular_target": "T1, DESI2 (Homo sapiens, UniProt Q9BSY9)", "T1 construct": "residues 1-194, pET28a vector, E. coli BL21 (DE3), Ni-NTA purified", "T1 sequence (Q9BSY9 whole entry, the tested form may be a part)": "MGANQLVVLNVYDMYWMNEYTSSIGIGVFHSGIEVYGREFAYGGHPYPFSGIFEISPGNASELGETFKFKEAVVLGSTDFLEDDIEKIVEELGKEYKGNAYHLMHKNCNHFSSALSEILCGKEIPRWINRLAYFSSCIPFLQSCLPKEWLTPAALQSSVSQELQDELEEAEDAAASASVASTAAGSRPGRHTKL", "assay": "thermal shift assay", "format": "binding", "conditions": "100 µM compound"}, "JOSD1": {"molecular_target": "JOSD1 (Homo sapiens, UniProt Q15040)", "assay": "Ub-Rho fluorescence assay", "format": "biochemical"}, "DESI2 [2]": {"molecular_target": "T1, DESI2", "assay": "Ub-AMC fluorescence assay, initial rate", "format": "biochemical"}}}
{"molecule": "N#CN1CC[C@H](C(=O)Nc2nc3cc(-c4ccc5c(c4)OCO5)ccc3s2)C1", "note": "[WWQ-03-012]", "values": [{"measurement": "dTm", "setting": "DESI2 [1]", "value": 3.5, "unit": "°C"}, {"measurement": "IC50", "setting": "JOSD1", "value": "> 10", "unit": "µM"}, {"measurement": "IC50", "setting": "DESI2 [2]", "value": 47.3, "unit": "nM"}]}
